This test concerns the target BRD4-BD1 (44-164) (Homo sapiens (Human), UniProt O60885). Description: Alphascreen binding assay BRD4-BD1. As to conditions: BRD4(1) H4; read-out: Biochemical activity (IC50 μM) BRD4(1) H4. As to the method: Binding of compounds of formula (I) with bromodomain 2, 3 4 was assessed using Alphascreen binding assay. The inhibition of the interaction between bromodomain and its acetylated target protein (Filippakopoulos P et al. 2012) was measured quantitatively using recombinant BRD proteins, an acetylated Histone 4 peptide and AlphaScreen™ technology. In absence of inhibition the BRD protein bound to AlphaScreen™ nickel chelate acceptor beads can interact with the acetylated Histone 4 peptide which is immobilized by the AlphaScreen™ Streptavidin coated beads. This interaction brings donor and acceptor beads in proximity. The close proximity allows the singlet oxygen produced by laser excitation of the donor beads to reach the acceptor beads and generate a luminescence signal.
Recombinant human bromodomains containing the N-terminal bromodomain (BRD2-BD1 (71-194), BRD3-BD1 (24-144) and BRD4-BD1 (44-164)) or dual bromodomains (BRD4-BD12 (1-477), BRD4-BD12 (1-472)) were prepared and purified as described in protein expression and purification session. The peptide is human Histone H41-21K5AcK8AcK12AcK16Ac-Biotin (Anaspec CA, USA).
Protocol for BRD2, BRD3 and BRD4 assay: All components are prepared in buffer composed of 50 mM HEPES pH 7.5, 100 mM NaCl, 0.01% bovine serum albumin (“BSA”), 0.01% Triton X-100, 2 mM dithiothreitol (“DTT”). 7 μL of Bromodomain protein and 7 μL of peptide are added to wells containing 1 μL of various concentrations of test compounds of formula (I) or DMSO vehicle in an Alphaplate (PerkinElmer GA, USA) and incubated for 1 hour at room temperature. 4 μL donor and acceptor bead mixture is then added with final concentrations of 7.5 μg/ml. 30 minutes after bead addition, Alpha signal is read on the Envision spectrometer (λEx 680 nm, λEm 520-620 nm). Final concentrations of bromodomain proteins and peptide are as shown below.
All data was normalized to the mean of 16 high and 16 low control wells on each plate. A four parameter curve fit of the following formula was then applied: Y=a+(b−a)/(1+(x/c)^d) Where ‘a’ is the minimum, ‘b’ is the maximum, ‘c’ is the pIC50 and ‘d’ is the Hill slope. Protein Expression and Purification
Recombinant human bromodomains containing the N-terminal bromodomain (BRD2-BD1 (71-194), BRD3-BD1 (24-144) and BRD4-BD1 (44-164)) or dual bromodomains (BRD4-BD12 (1-477), BRD4-BD12 (1-472)) were expressed in E. coli cells (in a modified pET vector) with an N-terminal six-His tag and purified using a combination of both IMAC (Ni-affinity) and size exclusion chromatography steps.
Recombinant BRD proteins were expressed using the E. coli strain BL21-CodonPlus (DE3) (Agilent Technologies CA, USA). Cells were grown in Terrific Broth (TB) media to an OD600 of 1.2 at 37° C. at which temperature was reduced to 25° C., protein was induced with 1.0 mM ispropyl-β-D-thiogalactopyranoside (“IPTG”) for 12-18 hours and harvested by centrifugation at 8000×g for 20 minutes. Cells were re-suspended in 0.1M K2PO4 pH 8.0, 250 mM NaCl, 10% Glycerol, 0.75% NP-40, 25 mM Imidazole, 5 mM beta-mercaptoethanol (“BME”) with 0.2 mg/ml Lysosyme, 2.0 mM phenylmethanesulfonyl fluoride (“PMSF”), 25 μg/ml DNAse I, incubated on ice for 30 minutes and lyzed with a cell disruptor (MicroFluidics MA, USA). The lysate was clarified by centrifugation at 20,000×g for 2 hours. The protein was captured with Ni-NTA resin (Life Technologies, USA). Contaminating proteins were washed off with 25 mM Tris-HCl pH 8.3, 250 mM NaCl, 12% Glycerol and 50 mM Imidazole. Following 3× wash steps, protein was eluted step wise using a 50 mM HEPES pH 7.5, 500 mM NaCl and 400 mM Imidazole. The protein was further purified using Gel Filtration column 26/600 Superdex 200 (GE Biosciences NJ, USA) in 50 mM HEPES pH 7.5, 250 mM NaCl. The protein was aliquoted and flash-frozen in liquid Nitrogen.

The source of these data is US10519177B2, “Heterocyclic compounds and uses thereof” (Plexxikon Inc., priority 2013, dated 2019).

The IC50 is the point on the concentration scale where inhibition reaches its midpoint. With `Cc1noc(C)c1-c1cnc2[nH]c(-c3ccc(F)cc3)c(Cc3cccnc3)c2c1` [P-0007, 4-[2-(4-fluorophenyl)-3-(3-pyridylmethyl)-1H-pyrrolo[2,3-b]pyridin-5-yl]-3,5-dimethyl-isoxazole], the IC50 is less than 1 µM.

Take `Cc1noc(C)c1-c1cnc2[nH]c(C)c(C(O)c3cccnc3)c2c1` (stereo not drawn) [P-0009, [5-(3,5-dimethylisoxazol-4-yl)-2-methyl-1H-pyrrolo[2,3-b]pyridin-3-yl]-(3-pyridyl)methanol]: the IC50 was less than 1 µM.

Take `COc1ncc(F)cc1C(OC)c1c[nH]c2ncc(-c3c(C)noc3C)cc12` (stereo not drawn) [P-0011, 4-[3-[(5-fluoro-2-methoxy-3-pyridyl)-methoxy-methyl]-1H-pyrrolo[2,3-b]pyridin-5-yl]-3,5-dimethyl-isoxazole]: the IC50 was less than 1 µM.

For the compound `Cc1noc(C)c1-c1cnc2[nH]cc(C(O)c3ccc(OCC(F)(F)F)nc3)c2c1` (stereo not drawn) [P-0012, [5-(3,5-dimethylisoxazol-4-yl)-1H-pyrrolo[2,3-b]pyridin-3-yl]-[6-(2,2,2-trifluoroethoxy)-3-pyridyl]methanol], the IC50 was less than 1 µM.

Consider `COC(c1ccc(C(F)(F)F)nc1)c1c[nH]c2ncc(-c3c(C)noc3C)cc12` (stereo not drawn) [P-0013, 4-[3-[methoxy-[6-(trifluoromethyl)-3-pyridyl]methyl]-1H-pyrrolo[2,3-b]pyridin-5-yl]-3,5-dimethyl-isoxazole], for which the IC50 was less than 1 µM.

As for `COC(c1c(F)cccc1Cl)c1c[nH]c2ncc(-c3c(C)noc3C)cc12` (stereo not drawn) [P-0014, 4-[3[(2-chloro-6-fluoro-phenyl)-methoxy-methyl]-1H-pyrrolo[2,3-b]pyridin-5-yl]-3,5-dimethyl-isoxazole], the IC50 was less than 1 µM.

For the compound `Cc1noc(C)c1-c1cnc2[nH]cc(C(O)c3ccccc3Cl)c2c1` (stereo not drawn) [P-0019, (2-chlorophenyl)-[5-(3,5-dimethylisoxazol-4-yl)-1H-pyrrolo[2,3-b]pyridin-3-yl]methanol], the IC50 is less than 1 µM.

As for `COC(c1ccccc1Cl)c1c[nH]c2ncc(-c3c(C)noc3C)cc12` (stereo not drawn) [P-0020, 4-[3-[(2-chlorophenyl)-methoxy-methyl]-1H-pyrrolo[2,3-b]pyridin-5-yl]-3,5-dimethyl-isoxazole], the IC50 was less than 1 µM.

For `Cc1noc(C)c1-c1cnc2[nH]cc(C(O)c3c(F)cccc3Cl)c2c1` (stereo not drawn) [P-0021, (2-chloro-6-fluoro-phenyl)-[5-(3,5-dimethylisoxazol-4-yl)-1H-pyrrolo[2,3-b]pyridin-3-yl]methanol], the half-maximal inhibitory concentration (IC50) is less than 1 µM.

Regarding `COc1ncc(F)cc1C(O)c1c[nH]c2ncc(-c3c(C)noc3C)cc12` (stereo not drawn) [P-0022, [5-(3,5-dimethylisoxazol-4-yl)-1H-pyrrolo[2,3-b]pyridin-3-yl]-(5-fluoro-2-methoxy-3-pyridyl)methanol], the IC50 was less than 1 µM.

For `Cc1noc(C)c1-c1cnc2[nH]cc(C3(O)CCC(F)(F)CC3)c2c1` [P-0024, 1-[5-(3,5-dimethylisoxazol-4-yl)-1H-pyrrolo[2,3-b]pyridin-3-yl]-4,4-difluoro-cyclohexanol], the IC50 was less than 1 µM.

In the case of `COc1ncc(C(O)c2c[nH]c3ncc(-c4c(C)noc4C)cc23)cc1F` (stereo not drawn) [P-0025, [5-(3,5-dimethylisoxazol-4-yl)-1H-pyrrolo[2,3-b]pyridin-3-yl]-(5-fluoro-6-methoxy-3-pyridyl)methanol], the IC50 is less than 1 µM.

As to `Cc1noc(C)c1-c1cnc2[nH]cc(Cc3ccccc3Cl)c2c1` [P-0026, 4-[3-[(2-chlorophenyl)methyl]-1H-pyrrolo[2,3-b]pyridin-5-yl]-3,5-dimethyl-isoxazole], the IC50 was less than 1 µM.

For `Cc1noc(C)c1-c1cnc2[nH]cc(Cc3c(F)cccc3Cl)c2c1` [P-0027, 4-[3-[(2-chloro-6-fluoro-phenyl)methyl]-1H-pyrrolo[2,3-b]pyridin-5-yl]-3,5-dimethyl-isoxazole], the IC50 was less than 1 µM.

For `COc1ncc(F)cc1Cc1c[nH]c2ncc(-c3c(C)noc3C)cc12` [P-0028, 4-[3-[(5-fluoro-2-methoxy-3-pyridyl)methyl)-1H-pyrrolo[2,3-b]pyridin-5-yl]-3,5-dimethyl-isoxazole], the IC50 was less than 1 µM.

For the compound `Cc1noc(C)c1-c1cnc2[nH]cc(C3=CCC(F)(F)CC3)c2c1` [P-0029, 4-[3-(4,4-difluorocyclo-hexen-1-yl)-1H-pyrrolo[2,3-b]pyridin-5-yl]-3,5-dimethyl-isoxazole], the IC50 was less than 1 µM.

As for `Cc1noc(C)c1-c1cnc2[nH]cc(C(O)C3CCC(F)(F)CC3)c2c1` (stereo not drawn) [P-0030, (4,4-difluorocyclohexyl)-[5-(3,5-dimethylisoxazol-4-yl)-1H-pyrrolo[2,3-b]pyridin-3-yl]methanol], the IC50 was less than 1 µM.

With `Cc1noc(C)c1-c1cnc2[nH]cc(C(=O)C3CCC(F)(F)CC3)c2c1` [P-0031, (4,4-difluorocyclohexyl)-[5-(3,5-dimethylisoxazol-4-yl)-1H-pyrrolo[2,3-b]pyridin-3-yl]methanone], the 50% inhibitory concentration (IC50) was less than 1 µM.

As to `Cc1noc(C)c1-c1cnc2[nH]cc(CC3CCC(F)(F)CC3)c2c1` [P-0034, 4-[3-[(4,4-difluoro-cyclohexyl)methyl]-1H-pyrrolo[2,3-b]pyridin-5-yl]-3,5-dimethyl-isoxazole], the IC50 was less than 1 µM.

For `CCCCS(=O)(=O)n1ccc2ncc(-c3c(C)noc3C)cc21` [P-0036, 4-(1-butylsulfonylpyrrolo[3,2-b]pyridin-6-yl)-3,5-dimethyl-isoxazole], the IC50 was less than 1 µM.

As to `Cc1noc(C)c1-c1cnc2ccn(S(=O)(=O)C3CCCC3)c2c1` [P-0037, 4-(1-cyclopentyl-sulfonylpyrrolo[3,2-b]pyridin-6-yl)-3,5-dimethyl-isoxazole], the IC50 is less than 1 µM.

Take `Cc1noc(C)c1-c1cnc2ccn(S(=O)(=O)c3ccccc3)c2c1` [P-0038, 4-[1-(benzenesulfonyl)pyrrolo[3,2-b]pyridin-6-yl]-3,5-dimethyl-isoxazole]: the IC50 is less than 1 µM.

For `Cc1noc(C)c1-c1cnc2[nH]cc(C(O)c3cccc(OC(F)(F)F)c3)c2c1` (stereo not drawn) [P-0039, [5-(3,5-dimethylisoxazol-4-yl)-1H-pyrrolo[2,3-b]pyridin-3-yl]-[3-(trifluoromethoxy)phenyl]methanol], the IC50 was less than 1 µM.

Regarding `Cc1noc(C)c1-c1cnc2[nH]cc(C(O)c3ccccc3OC(F)F)c2c1` (stereo not drawn) [P-0040, [2-(difluoromethoxy)phenyl]-[5-(3,5-dimethylisoxazol-4-yl)-1H-pyrrolo[2,3-b]pyridin-3-yl]methanol], the IC50 was less than 1 µM.

In the case of `Cc1noc(C)c1-c1cnc2[nH]cc(C(O)c3cccc4c3OC(F)(F)O4)c2c1` (stereo not drawn) [P-0041, (2,2-difluoro-1,3-benzodioxol-4-yl)-[5-(3,5-dimethylisoxazol-4-yl)-1H-pyrrolo[2,3-b]pyridin-3-yl]methanol], the 50% inhibitory concentration (IC50) was less than 1 µM.

`CCc1[nH]c2ncc(-c3c(C)noc3C)cc2c1C(O)c1ccccc1Cl` (stereo not drawn) [P-0042, (2-chlorophenyl)-[5-(3,5-dimethylisoxazol-4-yl)-2-ethyl-1H-pyrrolo[2,3-b]pyridin-3-yl]methanol]: the concentration for half-maximal inhibition (IC50) was less than 1 µM.

For the compound `CCc1[nH]c2ncc(-c3c(C)noc3C)cc2c1C(O)c1cccc(OC(F)(F)F)c1` (stereo not drawn) [P-0043, [5-(3,5-dimethylisoxazol-4-yl)-2-ethyl-1H-pyrrolo[2,3-b]pyridin-3-yl]-[3-(trifluoromethoxy)phenyl]methanol], the IC50 is less than 1 µM.
